Experimental data from PubChem BioAssay AID1996.
In brackets after ≈: the same amount, converted by molar mass.

Conditions: buffer; pH 7.4; 200.0 µM

Row | Structure (SMILES) | solubility kinetic [µg/mL]
1 | CC(C)CN(C(=O)C1CCCCC1)C1CCS(=O)(=O)C1 (stereo not given) | > 45.2
2 | CCN(CC)CCN(C(=O)c1ccc2ccccc2c1)c1nc2ccc(OC)cc2s1.Cl | 14.2
3 | COc1ccc(Cl)cc1NC(=O)CN(C)CC(=O)N(CC(C)C)c1c(N)n(CC(C)C)c(=O)[nH]c1=O | 77.9 (≈ 149 µM)
4 | Nc1nc(NCc2ccccc2)nc(NCCO)c1[N+](=O)[O-] | 43.4 (≈ 143 µM)
5 | Cc1c(C)n(CC(O)CN(CCO)CCO)c2ccccc12.Cl (stereo not given) | > 51.4
6 | Cc1cccc(CN2CCN(c3ncccn3)CC2)c1 | 30.6 (≈ 114 µM)
7 | CCCS(=O)(=O)Nc1c(C(=O)O)[nH]c2ccc(OC)cc12 | 46.3 (≈ 148 µM)
8 | S=C(Nc1ccc(Cl)cc1)NC1CCCCC1 | 4.4 (≈ 16.4 µM)
9 | Cc1ccc(NC(=O)C2CC(O)CN2C(=O)OCc2ccccc2)cc1C (stereo not given) | 48.8 (≈ 132 µM)
10 | CC(NC(=O)COC(=O)CCC(=O)c1ccc(Cl)cc1)c1ccccc1 (stereo not given) | > 56.1
11 | C=CCN(CC(=O)O)S(=O)(=O)c1ccccc1C(F)(F)F | > 48.5
12 | CN1CCN(c2ccc(C(F)(F)F)cc2N)CC1 | > 38.9
13 | CCn1c(C)cc(/C=C2/SC(=O)N(C(C)C(=O)OC)C2=O)c1C (stereo not given) | 22.3 (≈ 66.3 µM)
14 | c1ccc(CN2CCc3nc4ccccc4cc3C2)cc1 | 33.2 (≈ 121 µM)
15 | CC1CCc2cc(F)ccc2N1S(=O)(=O)c1ccc(F)cc1 (stereo not given) | 2.4 (≈ 7.42 µM)
16 | Cc1cc(C(=O)Nc2ccc(C#N)cc2)on1 | 10.3 (≈ 45.3 µM)
17 | N#Cc1ccccc1COC(=O)CCN=C1NS(=O)(=O)c2ccccc21 | 52.4 (≈ 142 µM)
18 | Cc1ccc(C2=NN(CC(=O)NCCC(C)C)C(=O)CC2)cc1 | > 47.3
19 | COc1ccc(-n2c(C)nc3ccccc3c2=O)c([N+](=O)[O-])c1 | 39.4 (≈ 127 µM)
20 | O=C(Nc1ccc2c(c1)CCC2)c1ncoc1-c1ccccc1F | < 0.3
21 | CCOc1ccc(N2C(=O)C3CCCN3C2=S)cc1 (stereo not given) | > 41.5
22 | CN1CCN(CC(=O)Nc2nc3c(s2)CCCC3)CC1 | > 44.2

Row | Structure (SMILES) | solubility kinetic [µg/mL]
23 | CN(C)C(=S)NC(=O)C12CC3CC(C)(CC(C)(C3)C1)C2 | 27.4 (≈ 93.1 µM)
24 | CC(C)(/C=N/O)N(O)C=C1C=CC(=O)C=C1 | > 33.3
25 | CCOC(=O)c1ccc(NC(=O)Cc2cccs2)cc1 | > 43.4
26 | CCOc1ccc(NC(=O)Nc2ccc3c(c2)nc(C)n3C)cc1 | 2.5 (≈ 7.71 µM)
27 | CCN(CC)c1ccc(NC(=O)Nc2ccccc2)cc1 | 4.1 (≈ 14.5 µM)
28 | Cc1nc2ccccc2nc1OCc1cccc([N+](=O)[O-])c1 | 2 (≈ 6.77 µM)
29 | CCC(C)Nc1nc(-c2ccccn2)nc2ccccc12 (stereo not given) | > 41.8
30 | COC(=O)c1ccc(COc2ccccc2/C=N/O)o1 | > 41.3
31 | Cc1cccc(NC(=O)Nc2ccc(OCc3ccccc3)cc2)n1 | < 0.2
32 | O=C(CN1C(=O)S/C(=C\c2ccc(C(=O)O)cc2)C1=O)Nc1ccccc1 | 32.2 (≈ 84.2 µM)
33 | O=C(NCc1ccc2c(c1)CCO2)Nc1cccc(C(F)(F)F)c1 | 1 (≈ 2.97 µM)
34 | COc1ccc2c(c1OC)C(=O)N1C2SC(C)(C)[C@H]1C(=O)NC1CC1 (stereo not given in full) | > 54.4
35 | COc1ccc(OC)c(/C=C/c2nc3ccccc3[nH]c2=O)c1 | 3.1 (≈ 10.1 µM)
36 | COc1ccc(Nc2c3c(nc4ccccc24)CCC3)c(OC)c1 | > 48.1
37 | Fc1ccc(NC(=S)N2CCc3[nH]c4ccccc4c3C2)cc1 | 1.2 (≈ 3.69 µM)
38 | Cc1ccc(-c2nc(CN3CCN(c4cnccn4)CC3)c(C)o2)o1 | 38.3 (≈ 113 µM)
39 | O=C(Nc1ccc(Cl)c(NC(=O)c2cccs2)c1)c1ccco1 | 37.4 (≈ 108 µM)
40 | CCOC(=O)C1CCCN(S(=O)(=O)Cc2ccc(Cl)cc2)C1 (stereo not given) | 51 (≈ 147 µM)
41 | COc1cccc(-c2csc(NC(=O)Nc3ccccc3)n2)c1 | < 0.2
42 | Cc1nc(C(F)(F)F)ccc1C(=O)Nc1ccc2ccccc2n1 | 3.3 (≈ 9.96 µM)
43 | O=S(=O)(NCCc1ccccn1)c1ccc(OC(F)(F)F)cc1 | 51.9 (≈ 150 µM)
44 | COc1ccccc1CCC(=O)OCC(=O)NC1CCCCC1 | 43.7 (≈ 137 µM)

Row | Structure (SMILES) | solubility kinetic [µg/mL]
45 | CCS(=O)(=O)N1CCC(C(=O)Oc2ccccc2OC)CC1 | > 49.1
46 | O=C(Nc1ccc2oc(-c3ccncc3)nc2c1)c1ccc(F)cc1 | 0.9 (≈ 2.7 µM)
47 | COCC(C)n1c(SCC(=O)N2CCOCC2)nc2ccccc2c1=O (stereo not given) | > 56.6
48 | O=C(Nc1ccc([N+](=O)[O-])cc1)c1cc(Cl)sc1Cl | < 0.3
49 | Cc1cc(Cl)ccc1NS(=O)(=O)c1c(C)[nH]c(=O)[nH]c1=O | > 49.5
50 | CCCNC(=O)C(=O)NCC1CCCN1CC (stereo not given) | 36 (≈ 149 µM)
51 | Cc1ccccc1Nc1ncnc2c1cnn2C | > 35.9
52 | CO/N=C(\CCC(=O)O)c1cccs1 | > 32
53 | Cc1csc(SCC(=O)N(C)C2CCS(=O)(=O)C2)n1 (stereo not given) | > 48.1
54 | O=C(CNC(=O)c1cccs1)OCc1ccc(Cl)cc1 | 41 (≈ 132 µM)
55 | COCCCn1c(=O)c2ccccc2n(Cc2ccccc2C)c1=O | > 50.8
56 | O=C(NC1CCCc2ccccc21)C1CCCC1 (stereo not given) | 27.3 (≈ 112 µM)
57 | O=C(NC(=S)NCCCN1CCOCC1)c1ccco1 | > 44.6
58 | Cc1cc(NC(=O)c2ccc(Cl)c([N+](=O)[O-])c2)no1 | 0.8 (≈ 2.84 µM)
59 | COCCNS(=O)(=O)c1cc(OC)c(C)cc1C | > 41
60 | COc1ccc(C(=O)Nc2cnccn2)cc1[N+](=O)[O-] | 13.9 (≈ 50.7 µM)
61 | Cc1cc(C)c(N=Cc2c(O)c3ccccc3oc2=O)c(C)c1 | < 0.7
62 | Cc1csc(=O)n1CCC(=O)N(C)Cc1c(F)cccc1Cl | > 51.4
63 | COc1cccc(NC(=O)C(=O)NCCCN2CCCC2=O)c1 | > 47.9
64 | CC(C)(C)OC(=O)N1CCC(C(=O)NCC2CCCO2)CC1 (stereo not given) | > 46.9
65 | Cc1cccc(-n2ccc(=O)c(C(=O)O)n2)c1 | > 34.5
66 | CSc1ccccc1NC(=O)CN1c2ccccc2CC1C (stereo not given) | 11.9 (≈ 38.1 µM)

Row | Structure (SMILES) | solubility kinetic [µg/mL]
67 | O=C(NCC(c1ccco1)N1CCCCC1)c1cccnc1 (stereo not given) | > 44.9
68 | COc1ccc(C(=O)O/N=C2\CCS(=O)(=O)c3sccc32)cc1 | < 0.8
69 | CCCCn1c(NC(=O)c2ccco2)c(C(=O)OCC)c2nc3ccccc3nc21 | 4.9 (≈ 12.1 µM)
70 | COC(=O)[C@H](CC(C)C)NC(=O)Nc1ccc(F)cc1 | > 42.3
71 | COc1ccc(CCC(=O)NCC(=O)OCc2ccccc2)cc1 | > 49.1
72 | CCc1ccc(CNc2ccc3c(c2)ncn3CC)cc1 | 37.3 (≈ 134 µM)
73 | Nc1ccccc1OCCOc1ccccc1N | > 36.6
74 | Cc1ccc(S(=O)(=O)Nc2ccc(Nc3ccccc3)cc2)cc1 | 2.5 (≈ 7.39 µM)
75 | Cc1csc(NC(=O)COc2ccc3c(c2)CCC3)n1 | 6.9 (≈ 23.9 µM)
76 | C=CCN(C(=O)CN1CCCCC1)c1nc(-c2ccccc2)cs1 | 2.4 (≈ 7.03 µM)
77 | Cc1ccc2[nH]c(C)c(CCNCc3cccnc3)c2c1.Cl | 47.1
78 | COC(=O)C1SCCN1S(=O)(=O)c1ccc(Cl)cc1 (stereo not given) | > 48.3
79 | Cc1cc(NC(=O)CN2C(=O)NC(C)(CC(C)C)C2=O)no1 (stereo not given) | > 46.3
80 | O=C(O)CCc1ccc(S(=O)(=O)Nc2ccccc2N2CCCCC2)cc1 | > 58.3
81 | C=CCNC(=O)c1cc(-c2ccc3c(c2)OCO3)on1 | 1.5 (≈ 5.51 µM)
82 | O=C1NC(c2cc(Cl)cc([N+](=O)[O-])c2O)Nc2ccccc21 (stereo not given) | > 48
83 | Nc1nc(Cl)nc2c1ncn2[C@@H]1O[C@H](CO)[C@@H](O)[C@H]1O | > 45.3
84 | Cc1sc2nc(-c3ccc(Br)cc3)oc(=O)c2c1C | < 0.7
85 | C=CCNc1nc(C(=O)OCC(=O)c2ccc(F)cc2)cs1 | 11.2 (≈ 35 µM)
